From paper PMC11679558, “Novel Peptidomimetic Cyclo-{E(I)-E(W)}Na (CP-88) with Hematopoietic Activity Sustained in Invasive and Oral Administration: Experimental and Preclinical Evaluation” (International Journal of Molecular Sciences, 2024)
Blank lines part the entries; values can stand above or below the molecule they belong to. Peptide text beside a SMILES is read from it.

Assays:
[1] = Pharmacokinetics of Stemokin in mice using 3H-Stemokin; format: in vivo; details: parenteral administration
Method: The additional goal of this study was to estimate Stemokin’s pharmacokinetics using 3H-Stemokin.
The main radioactivity was accumulated in the bone marrow. This exceptional tropism to bone marrow could explain its significant hemostimulating activity (Table 4 and Table 5, line 3 underlying the extraordinary tropism of Stemokin to Bone marrow tissue).
Pharmacokinetics of Stemokin With parenteral administration of the drug, a Cmax in the blood was achieved after 5 min […]. A Cmax was observed 30–40 min after administration in bone marrow, liver, kidneys, and lymph nodes. The drug’s T1/2 is 24 h and is eliminated from the body within 72 h. The pharmacokinetics of Stemokin was studied using ^3H-Stemokin, obtained by thermal activation of gaseous tritium. 3H-Stemokin was administered intramuscularly to BDF1 female mice, and 72 h after a single dose, the levels of ^3H-radioactivity were determined in animal organs and tissues. The main amount of radioactivity, ~80%, was excreted within 24 h after administration of ^3H-Stemokin and was less than 5% of the administered dose (Table 4 and Table 5).

[2] = cited from earlier work
Text: Several cyclopeptides (A1–A5) indicated stimulatory hematopoietic activity sustained in invasive and oral administration.

[3] = Interspecies extrapolation of the toxicological results to humans; details: interspecies extrapolation from the toxicological test results
Method: The toxicological test results conclude that in humans, considering interspecies extrapolation, CP-88 can be practically safe with a single and course administration in doses of up to 100 μg/kg. In the first phase of clinical trials, it is advisable to test the drug for tolerability, starting with a dose of 1 μg/kg. The dose can be increased to 10 μg/kg daily with no adverse reactions detected in the clinical results.

[4] = system: mice (CBA/C57BL6) F1; assay: Acute toxicity of CP-88 in mice; format: in vivo; details: male and female mice, intraperitoneally once, 0.2 mL per animal; doses 500, 1000 and 10,000 μg/kg
Method: This study of acute and chronic toxicity of CP-88 was conducted under the requirements of regulatory documents that regulate this study and are part of a complex of preclinical studies on acute and chronic toxicity that are required for the registration of drugs. Fifty-six male and fifty-six female mice, line (CBA/C57BL6) F1, were used for this study.
To determine acute toxicity, peptide was administered to male and female mice (CBA/C57BL6) F1 (56 male and 56 female mice). The animals were obtained from the Scientific and Production Enterprise “Stolbovaya” Laboratory Animal Nursery, Moscow Region, at the age of 4 weeks. Upon receipt, an external examination of the animal’s condition was conducted.
The drug was administered in the form of aqueous solutions intraperitoneally in doses of 500, 1000, and 10,000 μg/kg in a volume of 0.2 mL per mouse, which exceeded the effective doses of the drug by 50 to 1000 times. Animals of the same batch, injected with distilled water in a volume of 0.2 mL per animal (control substance), were used as a biological control.

T1/2 [1]: 24 h
time to Cmax in bone marrow, liver, kidneys, and lymph nodes [1]: 30 to 40 min
time within which the drug is eliminated from the body [1]: ≤ 72 h
Molecule: CC[C@H](C)[C@H](N)C(=O)N[C@@H](CCC(=O)O)C(=O)N[C@@H](Cc1c[nH]c2ccccc12)C(=O)O [Stemokin, Ile-Glu-Trp] (H-Ile-Glu-Trp-OH)

Molecule: c[DPheDGlu(DTrp)] [B6]
immuno and hemosuppressive activity (in words) [2]: immuno and hemosuppressive activity

Molecule: cyclo[L-Lys(N-acetyl-Glucosamine-N-acetyl-muramyl)-L-Glu(L-Trp)] [E1]
adjuvant activity (in words) [2]: adjuvant activity

Molecule: CC[C@H](C)[C@H](NC(=O)CC[C@@H]1NC(=O)[C@H](CCC(=O)N[C@@H](Cc2c[nH]c3ccccc23)C(=O)O)NC1=O)C(=O)O [CP-88, Cyclo-[Glu(Ile)-Glu(Trp)]]
practically safe dose in humans with a single and course administration [3]: up to 100 μg/kg
acute toxicity: doses with no toxic effects [4]: up to 10,000 µg/kg

Molecule: c[DTyrDGlu(DTrp)] [B9]
immuno and hemosuppressive activity (in words) [2]: immuno and hemosuppressive activity

Molecule: c[DAlaDGlu(DTrp)] [B1]
immuno and hemosuppressive activity (in words) [2]: immuno and hemosuppressive activity

Molecule: c[DLysDGlu(DTrp)] [B5]
immuno and hemosuppressive activity (in words) [2]: immuno and hemosuppressive activity

Molecule: cyclo[Lys(Palmitoyl)-Glu(D-Trp)] [E3]
adjuvant activity (in words) [2]: adjuvant activity
